The supplement of paper PMC9938120

Key:
Experiment in all cases: drug sensitivity score (DSS3, normalised partial AUC of % inhibition dose-response) (DSS (score)); higher = more sensitive (stronger inhibition of viability); extreme values may be limits of the assay
FMOC22 = patient-derived mucinous ovarian cancer cells; conditions: 72 h; library: FO5A; assay format: 2D, 384-well, CellTiter-Glo
Method in brief: (§1)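 Early-passage (under 10) patient-derived ovarian cancer cells were dispensed onto 384-well flat clear-bottom plates pre-plated with compounds at five concentrations spanning a 10,000-fold range, then incubated 72 h at 37 °C, 5% CO2. Viability was read with CellTiter-Glo, and the data were processed in Breeze. The drug sensitivity score is a partial area under the percent-inhibition dose-response curve divided by the log of the upper asymptote, with higher values meaning greater sensitivity.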

FMOC02_3 = patient-derived low-grade serous ovarian cancer cells; conditions: 72 h; library: FO5A; assay format: 2D, 384-well, CellTiter-Glo
Method in brief: as §1

FMOC25_2 = patient-derived low-grade serous ovarian cancer cells; conditions: 72 h; library: FO5A; assay format: 2D, 384-well, CellTiter-Glo
Method in brief: as §1

FMOC27 = patient-derived low-grade serous ovarian cancer cells; conditions: 72 h; library: FO5A; assay format: 2D, 384-well, CellTiter-Glo
Method in brief: as §1

FMOC28 = patient-derived low-grade serous ovarian cancer cells; conditions: 72 h; library: FO5A; assay format: 2D, 384-well, CellTiter-Glo
Method in brief: as §1

FMOC06 = patient-derived mucinous ovarian cancer cells; conditions: 72 h; library: FO5A; assay format: 2D, 384-well, CellTiter-Glo
Method in brief: as §1

FMOC04 = patient-derived high-grade serous ovarian cancer cells; conditions: 72 h; library: FO5A; assay format: 2D, 384-well, CellTiter-Glo
Method in brief: as §1

FMOC09 = patient-derived high-grade serous ovarian cancer cells; conditions: 72 h; library: FO5A; assay format: 2D, 384-well, CellTiter-Glo
Method in brief: as §1

FMOC11 = patient-derived high-grade serous ovarian cancer cells; conditions: 72 h; library: FO5A; assay format: 2D, 384-well, CellTiter-Glo
Method in brief: as §1

FMOC24 = patient-derived high-grade serous ovarian cancer cells; conditions: 72 h; library: FO5A; assay format: 2D, 384-well, CellTiter-Glo
Method in brief: as §1

FMOC17 = patient-derived low-grade serous ovarian cancer cells; conditions: 72 h; library: FO5A; assay format: 2D, 384-well, CellTiter-Glo
Method in brief: as §1

FMOC25_1 = patient-derived low-grade serous ovarian cancer cells; conditions: 72 h; library: FO4B; assay format: 2D, 384-well, CellTiter-Glo
Method in brief: as §1

FMOC14 = patient-derived high-grade serous ovarian cancer cells; conditions: 72 h; library: FO5A; assay format: 2D, 384-well, CellTiter-Glo
Method in brief: as §1

FMOC03 = patient-derived mucinous ovarian cancer cells; conditions: 72 h; library: FO5A; assay format: 2D, 384-well, CellTiter-Glo
Method in brief: as §1

FMOC02_2 = patient-derived low-grade serous ovarian cancer cells; conditions: 72 h; library: FO5A; assay format: 2D, 384-well, CellTiter-Glo
Method in brief: as §1

FMOC02_1 = patient-derived low-grade serous ovarian cancer cells; conditions: 72 h; library: FO5A; assay format: 2D, 384-well, CellTiter-Glo
Method in brief: as §1

## CS(=O)(=O)c1ccc(-c2cnc(N)c(C(=O)Nc3ccccc3)n2)cc1 [VE-821]
FMOC22
  drug sensitivity score: 0
FMOC02_3
  drug sensitivity score: 0.2
FMOC25_2
  drug sensitivity score: 2.2
FMOC27
  drug sensitivity score: 1.3
FMOC28
  drug sensitivity score: 0
FMOC06
  drug sensitivity score: 0
FMOC04
  drug sensitivity score: 0
FMOC09
  drug sensitivity score: 0
FMOC11
  drug sensitivity score: 0
FMOC24
  drug sensitivity score: 3.65
FMOC17
  drug sensitivity score: 0
FMOC25_1
  drug sensitivity score: 0.6
FMOC14
  drug sensitivity score: 1.9
FMOC03
  drug sensitivity score: 0
FMOC02_2
  drug sensitivity score: 0.8
FMOC02_1
  drug sensitivity score: 3.3

## O=C(O)CC1CC(c2ccccc2)=NO1 (stereo not given) [VGX-1027]
FMOC22
  drug sensitivity score: 0
FMOC02_3
  drug sensitivity score: 0
FMOC25_2
  drug sensitivity score: 0
FMOC27
  drug sensitivity score: 0
FMOC28
  drug sensitivity score: 0
FMOC06
  drug sensitivity score: 0
FMOC04
  drug sensitivity score: 0
FMOC09
  drug sensitivity score: 0
FMOC11
  drug sensitivity score: 0
FMOC24
  drug sensitivity score: 0
FMOC17
  drug sensitivity score: 0
FMOC25_1
  drug sensitivity score: 0
FMOC14
  drug sensitivity score: 0
FMOC03
  drug sensitivity score: 0
FMOC02_2
  drug sensitivity score: 0
FMOC02_1
  drug sensitivity score: 0

## CCCC(CCC)C(=O)O [Valproic acid]
FMOC22
  drug sensitivity score: 0
FMOC02_3
  drug sensitivity score: 0
FMOC25_2
  drug sensitivity score: 0
FMOC27
  drug sensitivity score: 0
FMOC28
  drug sensitivity score: 0.1
FMOC06
  drug sensitivity score: 0
FMOC04
  drug sensitivity score: 0
FMOC09
  drug sensitivity score: 0
FMOC11
  drug sensitivity score: 0
FMOC24
  drug sensitivity score: 0
FMOC17
  drug sensitivity score: 0
FMOC25_1
  drug sensitivity score: 0
FMOC14
  drug sensitivity score: 0
FMOC03
  drug sensitivity score: 0
FMOC02_2
  drug sensitivity score: 0
FMOC02_1
  drug sensitivity score: 0

## COc1cc2/c(=N/c3ccc(Br)cc3F)nc[nH]c2cc1OCC1CCN(C)CC1 [Vandetanib]
FMOC22
  drug sensitivity score: 0
FMOC02_3
  drug sensitivity score: 5.1
FMOC25_2
  drug sensitivity score: 4.1
FMOC27
  drug sensitivity score: 4.8
FMOC28
  drug sensitivity score: 2.1
FMOC06
  drug sensitivity score: 0.7
FMOC04
  drug sensitivity score: 0.55
FMOC09
  drug sensitivity score: 3.1
FMOC11
  drug sensitivity score: 3.1
FMOC24
  drug sensitivity score: 1.7
FMOC17
  drug sensitivity score: 6.2
FMOC25_1
  drug sensitivity score: 1.4
FMOC14
  drug sensitivity score: 0.1
FMOC03
  drug sensitivity score: 2.7
FMOC02_2
  drug sensitivity score: 6.3
FMOC02_1
  drug sensitivity score: 5.6

## CCc1c(C(=O)C(N)=O)c2c(OCC(=O)O)cccc2n1Cc1ccccc1 [Varespladib]
FMOC22
  drug sensitivity score: 0
FMOC02_3
  drug sensitivity score: 0
FMOC25_2
  drug sensitivity score: 0
FMOC27
  drug sensitivity score: 0
FMOC28
  drug sensitivity score: 0
FMOC06
  drug sensitivity score: 0
FMOC04
  drug sensitivity score: 0
FMOC09
  drug sensitivity score: 0
FMOC11
  drug sensitivity score: 0
FMOC24
  drug sensitivity score: 0.1
FMOC17
  drug sensitivity score: 0
FMOC25_1
  drug sensitivity score: 0
FMOC14
  drug sensitivity score: 0
FMOC03
  drug sensitivity score: 0
FMOC02_2
  drug sensitivity score: 0
FMOC02_1
  drug sensitivity score: 0

## Clc1ccc(Nc2nnc(Cc3ccncc3)c3ccccc23)cc1 [Vatalanib]
FMOC22
  drug sensitivity score: 0
FMOC02_3
  drug sensitivity score: 0
FMOC25_2
  drug sensitivity score: 0.7
FMOC27
  drug sensitivity score: 0
FMOC28
  drug sensitivity score: 3
FMOC06
  drug sensitivity score: 0
FMOC04
  drug sensitivity score: 0
FMOC09
  drug sensitivity score: 0
FMOC11
  drug sensitivity score: 0
FMOC24
  drug sensitivity score: 2.8
FMOC17
  drug sensitivity score: 0
FMOC25_1
  drug sensitivity score: 0
FMOC14
  drug sensitivity score: 0
FMOC03
  drug sensitivity score: 0.2
FMOC02_2
  drug sensitivity score: 0.9
FMOC02_1
  drug sensitivity score: 0.2

## C[C@]1(c2nc3c(C(N)=O)cccc3[nH]2)CCCN1 [Veliparib]
FMOC22
  drug sensitivity score: 0
FMOC02_3
  drug sensitivity score: 3.2
FMOC25_2
  drug sensitivity score: 1.6
FMOC27
  drug sensitivity score: 1.4
FMOC28
  drug sensitivity score: 0
FMOC06
  drug sensitivity score: 0
FMOC04
  drug sensitivity score: 0
FMOC09
  drug sensitivity score: 0
FMOC11
  drug sensitivity score: 0
FMOC24
  drug sensitivity score: 1.3
FMOC17
  drug sensitivity score: 0
FMOC25_1
  drug sensitivity score: 0.1
FMOC14
  drug sensitivity score: 0
FMOC03
  drug sensitivity score: 0
FMOC02_2
  drug sensitivity score: 1.6
FMOC02_1
  drug sensitivity score: 0.4

## CCCS(=O)(=O)Nc1ccc(F)c(C(=O)c2c[nH]c3ncc(-c4ccc(Cl)cc4)cc23)c1F [Vemurafenib]
FMOC22
  drug sensitivity score: 2.5
FMOC02_3
  drug sensitivity score: 1.8
FMOC25_2
  drug sensitivity score: 1.6
FMOC27
  drug sensitivity score: 0
FMOC28
  drug sensitivity score: 2.6
FMOC06
  drug sensitivity score: 0.3
FMOC04
  drug sensitivity score: 0
FMOC09
  drug sensitivity score: 0
FMOC11
  drug sensitivity score: 1.6
FMOC24
  drug sensitivity score: 1.65
FMOC17
  drug sensitivity score: 1
FMOC25_1
  drug sensitivity score: 1.7
FMOC14
  drug sensitivity score: 1.3
FMOC03
  drug sensitivity score: 3
FMOC02_2
  drug sensitivity score: 1.6
FMOC02_1
  drug sensitivity score: 3.3

## CC1(C)CCC(CN2CCN(c3ccc(C(=O)NS(=O)(=O)c4ccc(NCC5CCOCC5)c([N+](=O)[O-])c4)c(Oc4cnc5[nH]ccc5c4)c3)CC2)=C(c2ccc(Cl)cc2)C1 [Venetoclax]
FMOC22
  drug sensitivity score: 0
FMOC02_3
  drug sensitivity score: 0
FMOC25_2
  drug sensitivity score: 0
FMOC27
  drug sensitivity score: 0.3
FMOC28
  drug sensitivity score: 0
FMOC06
  drug sensitivity score: 0
FMOC04
  drug sensitivity score: 0
FMOC09
  drug sensitivity score: 0
FMOC11
  drug sensitivity score: 0
FMOC24
  drug sensitivity score: 1.8
FMOC17
  drug sensitivity score: 0
FMOC25_1
  drug sensitivity score: 0
FMOC14
  drug sensitivity score: 0
FMOC03
  drug sensitivity score: 0
FMOC02_2
  drug sensitivity score: 0
FMOC02_1
  drug sensitivity score: 0

## CS(=O)(=O)c1ccc(C(=O)Nc2ccc(Cl)c(-c3ccccn3)c2)c(Cl)c1 [Vismodegib]
FMOC22
  drug sensitivity score: 0
FMOC02_3
  drug sensitivity score: 0
FMOC25_2
  drug sensitivity score: 0
FMOC27
  drug sensitivity score: 0.8
FMOC28
  drug sensitivity score: 0
FMOC06
  drug sensitivity score: 0.3
FMOC04
  drug sensitivity score: 0
FMOC09
  drug sensitivity score: 0
FMOC11
  drug sensitivity score: 0
FMOC24
  drug sensitivity score: 1.95
FMOC17
  drug sensitivity score: 0
FMOC25_1
  drug sensitivity score: 0
FMOC14
  drug sensitivity score: 0
FMOC03
  drug sensitivity score: 0.6
FMOC02_2
  drug sensitivity score: 0.4
FMOC02_1
  drug sensitivity score: 0
